US20220031815A1, “ANIMAL FEED COMPOSITION AND USE THEREOF” (DSM IP ASSETS B.V., priority 2018, published 2022)

Test system: male broiler chickens (Cobb-500)
Assay: In vivo broiler trial 1: growth performance under litter/density challenge
Experimental: The trial was performed at Poultrz section, INTA-EEA Pergamino, Buenos Aires, Argentina from Aug. 15, 2017 to Oct. 3, 2017. Day-old male broiler chickens (“Cobb-500”), were supplied by a commercial hatchery (Granja Tres Arroyos, Tres Arroyos 378, Buenos Aires, Argentina).
Birds were housed in a conventional barn (netting open sides with curtains) into floor pens with shaving wood as litter. Gas heaters, fans and foggers were used to control the barn temperature.
All birds were weighed, separated in categories of 1 g and distributed to form homogenous lots. Birds of extreme weights were excluded.
Feed and waer were providing ad-libitum.
The experimental diets (Starter, Growing, Finisher and last week) were based on corn, soybean meal as main ingredients (Table 3). Phytase (RONOZYME® HiPhos GT, dose 1000 FYT/kg of feed, 100 g/tn of feed) was used in all the treatments. Rovimix broilders from DSM was used as vitamin-mineral premix, and maduramycin as coccidiostat. The composition of the feed was listed as Table 4
Individual body weight and pen feed intake were determined weekly.
Based on this information feed conversion and weight gain were calculated considering each phase and the complete cycle.
The live weight/feed conversion ratio was used. This is a simplification to avoid the impact of mortality when a low number of birds per pen is used (18 in this experiment).
Uniformity (% of birds included in a range of weights of […] of the pen mean body weight) was determined in each pen at 48 days of age.

## Enramycin
Enramycin significant from day 35, muramidase at day 7 and from day 21
  effect on feed conversion: the feed conversion was improved
Effect of inclusion in feed (Enramycin 10 ppm; Muramidase 392 ppm)
  reduction of days to reach the slaughtering weight (2800 g): 1.1 days
Significant from day 21
  effect on body weight: an increment in body weight was observed
